Laboratory results reported in patent US9480680B2, “Stable pharmaceutical composition of clopidogrel free base for oral and parenteral delivery” (priority 2013, dated 2016).
Like-named read-outs stand apart in the source and are kept apart here.

Key:
platelet aggregation = details: cited from earlier work
[1] = cited from earlier work
[2] = for Concentration, Aqueous Phase / Concentration, Oil Phase: 600 mg drug in 20 g soy bean oil + 20 g DI water, stirred at room temperature 24 hours, HPLC; for pH of aqueous phase: aqueous phase at end of partition study; for O/W partition ratio: soy bean oil / DI water, room temperature 24 hours
Protocol: In order to determine percentage of clopidogrel partitioning in oil and aqueous phases, a partition study was conducted using clopidogrel biosulfate and clopidogrel free base. 600 mg of drug was weighed out and added to a beak containing equal weight of soy bean oil and DI water (20 g each). Stir the mixture in room temperature for 24 hours. At the end of study, samples from both phases were withdrawn and tested by HPLC as described in Example 14. The pH of the aqueous phase were measured.

[3] = 5 min
Excerpt: As used herein the disease or condition refers to any disease or condition which may be treated using clopidogrel containing medicine for the prevention of atherothrombotic events such as myocardial infarction, stroke, peripheral arterial disease, acute coronary syndrome, and cardio-vascular death.

[4] = cited from earlier work; remark: listed apart in the source

In the case of `COC(=O)[C@H](c1ccccc1Cl)N1CCc2sccc2C1` [Clopidogrel free base, methyl (+)-(S)-α-(o-chlorophenyl)-6,7-dihydrothieno[3,2-c]pyridine-5(4H)-acetate], the “biological / pharmacological activity” value (platelet aggregation) is listed as “biologically active”, the “solubility in ethyl ether” value ([1]; ethyl ether) is listed as “practically insoluble” and the “stability under increased moisture and temperature” value [1] is listed as “unstable”. The solubility in methanol ([1]; methanol) was “dissolves freely”, the “solubility in methylene chloride” value ([1]; methylene chloride) was “dissolves sparingly” and the “solubility at pH 1” value ([1]; pH 1) was “freely soluble”. The “solubility in water at neutral pH” value ([1]; water, neutral pH) was “practically insoluble”, the “Concentration, Aqueous Phase” value [2] was 6 µg/mL and the “Concentration, Oil Phase” value [2] was 29000 µg/mL. The “pH of aqueous phase” value [2] was 7, the “amount of clopidogrel in the aqueous phase” value ([2]; soy bean oil / DI water partition study, result in words) was “negligible” and the O/W partition ratio [2] was 4833. The “degradation in diluted NaOH solution” value [3] was “degraded completely in 5 minutes”.

In the case of `COC(=O)[C@@H](c1ccccc1Cl)N1CCc2sccc2C1` [Impurity C, methyl ( )-(R)-(o-chlorophenyl)-6,7-dihydrothieno[3,2-c]pyridine-5(4H)-acetate], the anti-aggregation activity (platelet aggregation) is listed as “does not exhibit any anti-aggregation activity”, the convulsions ([4]; high doses of animals) is listed as “can evoke convulsions” and the tolerability ([4]; in vivo) is listed as “poorly tolerated”.

In the case of `COC(=O)[C@H](c1ccccc1Cl)N1CCc2sccc2C1` [Clopidogrel bisulfate], the “stability under increased moisture and temperature” value ([1]; listed as clopidogrel biosulfate) is given as “relatively unstable”, the “Concentration, Aqueous Phase” value [2] is given as 15000 µg/mL and the “Concentration, Oil Phase” value [2] is given as 17000 µg/mL. The “pH of aqueous phase” value [2] was 2, the “clopidogrel staying in the aqueous phase” value ([2]; soy bean oil / DI water partition study) was “about 50%” and the O/W partition ratio [2] was 1.1.

In the case of `O=C(O)[C@H](c1ccccc1Cl)N1CCc2sccc2C1` [Impurity A], the “biological / pharmacological activity” value (platelet aggregation) is given as “no pharmacological activity”.
